For assay [1], the target named is T1, Mitogen-activated protein kinase 14 (Homo sapiens, UniProt Q16539). As to the kind of experiment: Fluorescence-Based Competition Assay. As to conditions: pH 7. From the text: The competitive binding between test compounds and a fluorescence p38 alpha inhibitor, SK&F 86002.
Assay [2] has as its target T1, Mitogen-activated protein kinase 14. As to the kind of experiment: Kinase Activity Assay. As to conditions: pH 7. The method, then: In vitro kinase activity and selectivity was determined by using SelectScreen kinase profiling Z'-LYTE assay from Invitrogen.

The structures appear in SMILES notation. pIC50, pKd: −log10 of the molar value.

A word on the pIC50: it is −log10 of the IC50, conventionally taken in molar units. A lower pIC50 goes with a large IC50. One may read the pKd as the Kd on a negative log10 scale, so that one unit is a factor of ten.

T1 sequence (Q16539 whole entry): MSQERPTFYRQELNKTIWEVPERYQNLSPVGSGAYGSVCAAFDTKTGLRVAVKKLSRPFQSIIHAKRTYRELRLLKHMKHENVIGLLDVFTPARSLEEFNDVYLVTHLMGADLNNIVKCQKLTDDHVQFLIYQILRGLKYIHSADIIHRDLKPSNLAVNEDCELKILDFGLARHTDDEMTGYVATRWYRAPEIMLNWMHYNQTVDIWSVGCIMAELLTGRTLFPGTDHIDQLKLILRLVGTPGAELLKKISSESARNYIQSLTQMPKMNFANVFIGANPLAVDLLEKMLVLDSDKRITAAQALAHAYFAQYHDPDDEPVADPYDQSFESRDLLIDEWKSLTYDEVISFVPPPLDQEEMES

As to `C=C1SN(C)c2ccc(S(=O)(=O)Nc3ccccc3N3CCCCC3)cc21` [BI-12H11], the negative logarithm of the IC50 (pIC50) in assay [1] is 5.25; in assay [2] it was 6.15. The pKd in assay [2] is 6.12.

These data come from BindingDB's records for doi:10.1021/cb700025j (Burnham Institute for Medical Research, 2007).
